Assays:
[1] = system: Tyrosine-protein kinase ABL1 (Homo sapiens), P00519 [T315I]; assay: Binding affinity to human non-phosphorylated ABL1 T315I mutant (S229 to K512 residues) expressed in mammalian expression system assessed as residual binding level at 10 uM by Kinomescan method relative to control
[2] = biological target: Phosphatidylinositol 4,5-bisphosphate 3-kinase catalytic subunit gamma isoform (Homo sapiens) (UniProt P48736); assay: Binding affinity to wild-type human partial length PIK3CG (S144 to A1102 residues) expressed in mammalian expression system assessed as residual binding level at 10 uM by Kinomescan method relative to control
[3] = biological target: Calcium/calmodulin-dependent protein kinase type II subunit gamma (Homo sapiens) (UniProt Q13555); assay: Binding affinity to wild-type human partial length CAMK2G (R9 to A303 residues) expressed in bacterial expression system assessed as residual binding level at 10 uM by Kinomescan method relative to control
[4] = biological target: Dual serine/threonine and tyrosine protein kinase (Homo sapiens) (UniProt Q6XUX3); assay: Binding affinity to wild-type human full length RIPK5 (M1 to T929 residues) expressed in mammalian expression system assessed as residual binding level at 10 uM by Kinomescan method relative to control
[5] = biological target: Ribosomal protein S6 kinase alpha-4 (Homo sapiens) (UniProt O75676); assay: Binding affinity to wild-type human partial length N-terminal RPS6KA4 kinase domain 1 expressed in bacterial expression system assessed as residual binding level at 10 uM by Kinomescan method relative to control
[6] = biological target: Serine/threonine-protein kinase MARK1 (Homo sapiens) (UniProt Q9P0L2); assay: Binding affinity to wild-type human partial length MARK1 (Q30 to T341 residues) expressed in bacterial expression system assessed as residual binding level at 10 uM by Kinomescan method relative to control
[7] = biological target: Rhodopsin kinase GRK1 (Homo sapiens) (UniProt Q15835); assay: Binding affinity to wild-type human full length GRK1 (M1 to S563 residues) expressed in mammalian expression system assessed as residual binding level at 10 uM by Kinomescan method relative to control
[8] = biological target: Cyclin-dependent kinase-like 5 (Homo sapiens) (UniProt O76039); assay: Binding affinity to wild-type human partial length CDKL5 (M1 to S337 residues) expressed in mammalian expression system assessed as residual binding level at 10 uM by Kinomescan method relative to control
[9] = biological target: Ribosomal protein S6 kinase alpha-3 (Homo sapiens) (UniProt P51812); assay: Binding affinity to wild-type human partial length C-terminal RSK2 kinase domain 2 (V402 to S715 residues) expressed in mammalian expression system assessed as residual binding level at 10 uM by Kinomescan method relative to control
[10] = biological target: Mitogen-activated protein kinase kinase kinase 9 (Homo sapiens) (UniProt P80192); assay: Binding affinity to wild-type human partial length MLK1 (V88 to W426 residues) expressed in bacterial expression system assessed as residual binding level at 10 uM by Kinomescan method relative to control
Mitogen-activated protein kinase kinase kinase 9 (Homo sapiens), sequence (P80192 whole entry, looked up, the tested form may be a part): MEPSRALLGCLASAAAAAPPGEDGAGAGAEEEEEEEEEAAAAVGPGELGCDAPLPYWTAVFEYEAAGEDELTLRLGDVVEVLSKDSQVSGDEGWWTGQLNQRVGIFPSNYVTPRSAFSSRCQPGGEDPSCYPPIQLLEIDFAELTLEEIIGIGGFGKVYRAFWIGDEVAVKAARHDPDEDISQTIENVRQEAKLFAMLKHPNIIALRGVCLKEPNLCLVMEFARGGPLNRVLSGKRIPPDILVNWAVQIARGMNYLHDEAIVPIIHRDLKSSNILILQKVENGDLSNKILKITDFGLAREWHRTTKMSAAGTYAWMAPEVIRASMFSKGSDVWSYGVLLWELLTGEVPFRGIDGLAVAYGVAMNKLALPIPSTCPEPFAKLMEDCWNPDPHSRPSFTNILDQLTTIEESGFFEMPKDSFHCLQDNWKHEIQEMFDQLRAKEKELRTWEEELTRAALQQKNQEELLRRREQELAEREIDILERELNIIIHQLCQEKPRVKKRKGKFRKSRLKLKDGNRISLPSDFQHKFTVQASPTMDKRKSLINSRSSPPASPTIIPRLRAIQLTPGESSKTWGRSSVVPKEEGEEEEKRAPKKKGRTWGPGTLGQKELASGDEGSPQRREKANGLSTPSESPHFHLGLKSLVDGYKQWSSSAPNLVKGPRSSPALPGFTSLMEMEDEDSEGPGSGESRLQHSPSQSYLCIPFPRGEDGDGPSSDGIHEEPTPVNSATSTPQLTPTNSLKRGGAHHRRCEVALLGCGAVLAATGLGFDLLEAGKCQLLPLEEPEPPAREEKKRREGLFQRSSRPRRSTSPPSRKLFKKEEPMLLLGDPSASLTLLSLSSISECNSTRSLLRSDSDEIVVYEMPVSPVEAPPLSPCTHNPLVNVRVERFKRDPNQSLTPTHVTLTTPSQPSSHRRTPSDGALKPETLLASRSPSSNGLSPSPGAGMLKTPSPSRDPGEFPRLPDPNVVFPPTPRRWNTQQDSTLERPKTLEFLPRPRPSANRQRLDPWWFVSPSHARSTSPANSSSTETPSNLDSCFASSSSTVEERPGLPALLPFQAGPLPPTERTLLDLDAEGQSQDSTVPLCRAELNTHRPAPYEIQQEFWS

[11] = biological target: Ephrin type-A receptor 3 (Homo sapiens) (UniProt P29320); assay: Binding affinity to wild-type human partial length EPHA3 (D604 to K889 residues) expressed in bacterial expression system assessed as residual binding level at 10 uM by Kinomescan method relative to control
[12] = biological target: Cyclin-dependent kinase 11B (Homo sapiens) (UniProt P21127); assay: Binding affinity to wild-type human partial length CDC2L1 (P353 to G692 residues) expressed in bacterial expression system assessed as residual binding level at 10 uM by Kinomescan method relative to control
[13] = system: Proto-oncogene tyrosine-protein kinase receptor Ret (Homo sapiens), P07949 [V804M]; assay: Binding affinity to human partial length RET V804M mutant (E713 to D1014 residues) expressed in bacterial expression system assessed as residual binding level at 10 uM by Kinomescan method relative to control
[14] = biological target: Proto-oncogene tyrosine-protein kinase ROS (Homo sapiens) (UniProt P08922); assay: Binding affinity to wild-type human partial length ROS1 (A1921 to N2240 residues) expressed in bacterial expression system assessed as residual binding level at 10 uM by Kinomescan method relative to control
[15] = system: Fibroblast growth factor receptor 3 (Homo sapiens), P22607 [G697C]; assay: Binding affinity to human partial length FGFR3 G697C mutant (R442 to S771 residues) expressed in bacterial expression system assessed as residual binding level at 10 uM by Kinomescan method relative to control
[16] = biological target: Phosphorylase b kinase gamma catalytic chain, skeletal muscle/heart isoform (Homo sapiens) (UniProt Q16816); assay: Binding affinity to wild-type human full length PHKG1 (M1 to Y387 residues) expressed in bacterial expression system assessed as residual binding level at 10 uM by Kinomescan method relative to control
Phosphorylase b kinase gamma catalytic chain, skeletal muscle/heart isoform (Homo sapiens), sequence (Q16816 whole entry, looked up, the tested form may be a part, canonical isoform): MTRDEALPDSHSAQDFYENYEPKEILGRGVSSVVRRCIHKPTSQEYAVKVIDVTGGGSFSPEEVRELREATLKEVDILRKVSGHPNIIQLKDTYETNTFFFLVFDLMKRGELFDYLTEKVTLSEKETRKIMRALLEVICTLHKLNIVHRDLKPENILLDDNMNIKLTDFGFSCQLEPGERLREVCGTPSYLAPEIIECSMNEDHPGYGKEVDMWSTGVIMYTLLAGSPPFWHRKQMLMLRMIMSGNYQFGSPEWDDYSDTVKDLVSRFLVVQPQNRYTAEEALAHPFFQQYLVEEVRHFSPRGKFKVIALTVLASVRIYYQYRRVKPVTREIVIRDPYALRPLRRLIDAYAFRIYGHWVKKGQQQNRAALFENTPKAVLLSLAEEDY

[17] = biological target: Serine/threonine-protein kinase TAO3 (Homo sapiens) (UniProt Q9H2K8); assay: Binding affinity to wild-type human partial length TAOK3 (M1 to T316 residues) expressed in mammalian expression system assessed as residual binding level at 10 uM by Kinomescan method relative to control
Serine/threonine-protein kinase TAO3 (Homo sapiens), sequence (Q9H2K8 whole entry, the tested form may be a part): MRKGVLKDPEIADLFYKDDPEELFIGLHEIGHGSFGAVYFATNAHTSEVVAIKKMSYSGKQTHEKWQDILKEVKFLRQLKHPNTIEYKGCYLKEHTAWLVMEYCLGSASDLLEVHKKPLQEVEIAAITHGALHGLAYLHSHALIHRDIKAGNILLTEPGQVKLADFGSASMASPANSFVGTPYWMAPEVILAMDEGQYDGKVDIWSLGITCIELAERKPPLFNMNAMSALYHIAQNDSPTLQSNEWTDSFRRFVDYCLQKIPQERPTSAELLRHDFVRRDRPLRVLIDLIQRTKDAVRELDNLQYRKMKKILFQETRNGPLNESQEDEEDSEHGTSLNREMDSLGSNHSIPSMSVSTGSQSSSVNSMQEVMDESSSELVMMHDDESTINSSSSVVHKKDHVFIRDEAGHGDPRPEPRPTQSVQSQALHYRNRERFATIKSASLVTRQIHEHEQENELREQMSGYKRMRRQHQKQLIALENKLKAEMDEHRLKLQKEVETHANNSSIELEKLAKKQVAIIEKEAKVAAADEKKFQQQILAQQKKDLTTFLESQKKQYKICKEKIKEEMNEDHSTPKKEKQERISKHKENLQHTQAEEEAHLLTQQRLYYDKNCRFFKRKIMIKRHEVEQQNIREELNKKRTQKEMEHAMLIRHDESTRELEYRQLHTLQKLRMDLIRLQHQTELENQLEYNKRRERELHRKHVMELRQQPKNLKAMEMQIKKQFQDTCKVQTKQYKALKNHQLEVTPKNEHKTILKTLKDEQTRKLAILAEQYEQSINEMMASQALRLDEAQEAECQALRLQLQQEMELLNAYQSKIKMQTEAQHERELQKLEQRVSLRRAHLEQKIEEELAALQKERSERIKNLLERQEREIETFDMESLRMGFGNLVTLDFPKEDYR

[18] = biological target: Dual specificity protein kinase TTK (Homo sapiens) (UniProt P33981); assay: Binding affinity to wild-type human partial length TTK (N505 to V798 residues) expressed in bacterial expression system assessed as residual binding level at 10 uM by Kinomescan method relative to control
Dual specificity protein kinase TTK (Homo sapiens), sequence (P33981 whole entry, the tested form may be a part): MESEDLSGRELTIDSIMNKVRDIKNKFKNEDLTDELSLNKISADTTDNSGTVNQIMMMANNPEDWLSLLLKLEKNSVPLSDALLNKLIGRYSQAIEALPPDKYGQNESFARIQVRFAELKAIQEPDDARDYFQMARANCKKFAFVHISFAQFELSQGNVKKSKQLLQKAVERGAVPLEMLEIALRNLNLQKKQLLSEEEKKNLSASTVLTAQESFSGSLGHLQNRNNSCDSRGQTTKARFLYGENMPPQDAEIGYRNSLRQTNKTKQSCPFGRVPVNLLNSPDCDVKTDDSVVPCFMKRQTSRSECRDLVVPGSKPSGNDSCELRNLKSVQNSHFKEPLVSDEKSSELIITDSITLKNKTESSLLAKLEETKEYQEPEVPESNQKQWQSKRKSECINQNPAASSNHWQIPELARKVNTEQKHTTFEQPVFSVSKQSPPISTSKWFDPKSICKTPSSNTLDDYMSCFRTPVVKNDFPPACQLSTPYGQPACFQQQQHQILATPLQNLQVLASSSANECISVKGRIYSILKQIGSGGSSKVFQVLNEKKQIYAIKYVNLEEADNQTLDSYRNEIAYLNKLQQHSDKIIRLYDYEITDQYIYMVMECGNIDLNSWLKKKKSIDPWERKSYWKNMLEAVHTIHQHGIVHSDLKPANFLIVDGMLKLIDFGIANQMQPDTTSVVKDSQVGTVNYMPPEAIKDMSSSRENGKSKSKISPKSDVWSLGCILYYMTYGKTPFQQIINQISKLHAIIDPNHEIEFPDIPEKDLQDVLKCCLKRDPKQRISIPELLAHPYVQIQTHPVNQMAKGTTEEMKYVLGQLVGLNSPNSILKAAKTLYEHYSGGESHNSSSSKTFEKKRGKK

[19] = biological target: Serine/threonine-protein kinase 4 (Homo sapiens) (UniProt Q13043); assay: Binding affinity to wild-type human full length MST1 (M1 to F487 residues) expressed in bacterial expression system assessed as residual binding level at 10 uM by Kinomescan method relative to control
[20] = biological target: MAP/microtubule affinity-regulating kinase 3 (Homo sapiens) (UniProt P27448); assay: Binding affinity to wild-type human full length MARK3 (M1 to L729 residues) expressed in bacterial expression system assessed as residual binding level at 10 uM by Kinomescan method relative to control
[21] = biological target: Serine/threonine-protein kinase PAK 2 (Homo sapiens) (UniProt Q13177); assay: Binding affinity to wild-type human partial length PAK2 (P151 to R525 residues) expressed in bacterial expression system assessed as residual binding level at 10 uM by Kinomescan method relative to control
Serine/threonine-protein kinase PAK 2 (Homo sapiens), sequence (Q13177 whole entry, the tested form may be a part): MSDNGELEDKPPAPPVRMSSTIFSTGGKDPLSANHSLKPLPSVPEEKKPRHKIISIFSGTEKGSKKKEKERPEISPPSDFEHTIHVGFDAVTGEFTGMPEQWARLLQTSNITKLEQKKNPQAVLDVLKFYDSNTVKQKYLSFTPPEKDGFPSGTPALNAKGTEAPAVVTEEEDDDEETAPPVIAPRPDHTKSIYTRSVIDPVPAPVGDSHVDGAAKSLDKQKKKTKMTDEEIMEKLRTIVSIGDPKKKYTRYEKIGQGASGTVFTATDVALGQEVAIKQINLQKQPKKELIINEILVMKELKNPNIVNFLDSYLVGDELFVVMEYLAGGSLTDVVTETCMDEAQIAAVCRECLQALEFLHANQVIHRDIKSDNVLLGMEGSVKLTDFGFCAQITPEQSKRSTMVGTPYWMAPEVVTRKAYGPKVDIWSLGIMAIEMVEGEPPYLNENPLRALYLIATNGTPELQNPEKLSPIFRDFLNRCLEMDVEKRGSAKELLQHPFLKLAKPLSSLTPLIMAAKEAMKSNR

[22] = biological target: Cyclin-dependent kinase 2 (Homo sapiens) (UniProt P24941); assay: Binding affinity to wild-type human full length CDK2 (M1 to L298 residues) expressed in bacterial expression system assessed as residual binding level at 10 uM by Kinomescan method relative to control
[23] = biological target: Serine/threonine-protein kinase PLK1 (Homo sapiens) (UniProt P53350); assay: Binding affinity to wild-type human partial length PLK1 (A33 to F325 residues) expressed in mammalian expression system assessed as residual binding level at 10 uM by Kinomescan method relative to control
[24] = biological target: Serine/threonine-protein kinase N1 (Homo sapiens) (UniProt Q16512); assay: Binding affinity to wild-type human partial length PKN1 (E598 to C948 residues) expressed in bacterial expression system assessed as residual binding level at 10 uM by Kinomescan method relative to control
Serine/threonine-protein kinase N1 (Homo sapiens), sequence (Q16512 2-942 limits assumed): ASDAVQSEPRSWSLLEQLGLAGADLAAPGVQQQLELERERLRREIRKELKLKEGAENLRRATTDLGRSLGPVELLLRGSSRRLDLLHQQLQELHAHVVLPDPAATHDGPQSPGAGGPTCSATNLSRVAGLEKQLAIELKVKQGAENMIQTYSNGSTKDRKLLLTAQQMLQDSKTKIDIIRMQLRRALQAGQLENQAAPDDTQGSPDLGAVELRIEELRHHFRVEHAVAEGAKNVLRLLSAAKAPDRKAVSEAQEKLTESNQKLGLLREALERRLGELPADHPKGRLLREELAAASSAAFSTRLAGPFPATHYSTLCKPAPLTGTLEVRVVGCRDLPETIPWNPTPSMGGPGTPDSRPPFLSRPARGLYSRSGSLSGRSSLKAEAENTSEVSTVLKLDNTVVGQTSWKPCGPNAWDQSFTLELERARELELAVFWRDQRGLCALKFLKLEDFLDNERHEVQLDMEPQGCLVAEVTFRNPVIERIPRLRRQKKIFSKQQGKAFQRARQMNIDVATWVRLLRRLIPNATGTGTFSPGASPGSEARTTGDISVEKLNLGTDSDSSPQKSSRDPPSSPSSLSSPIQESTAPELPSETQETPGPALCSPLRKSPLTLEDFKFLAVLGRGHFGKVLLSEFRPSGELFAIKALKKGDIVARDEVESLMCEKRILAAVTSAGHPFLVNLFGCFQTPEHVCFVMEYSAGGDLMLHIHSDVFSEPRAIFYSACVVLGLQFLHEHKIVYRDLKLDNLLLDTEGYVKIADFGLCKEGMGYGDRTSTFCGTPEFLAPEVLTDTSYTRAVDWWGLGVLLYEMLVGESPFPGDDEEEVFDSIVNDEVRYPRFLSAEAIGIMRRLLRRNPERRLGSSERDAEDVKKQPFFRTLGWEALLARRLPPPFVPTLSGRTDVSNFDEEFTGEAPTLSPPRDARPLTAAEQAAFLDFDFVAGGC

Work on `CC(C)N1C(=O)C(NCCCN(C)C)=C(c2cn(C)c3ccccc23)C1=O.Cl` yielded an Activity [1] of 93%, an Activity [2] of 70% and an Activity [3] of 83%. It also gave an Activity [4] of 100%, an Activity [5] of 100% and an Activity [6] of 67%. The Activity [7] was 96%, the Activity [8] was 96% and the Activity [9] was 87%. It also gave an Activity [10] of 100%, an Activity [11] of 100% and an Activity [12] of 96%. It also gave an Activity [13] of 97%, an Activity [14] of 87% and an Activity [15] of 79%. It also gave an Activity [16] of 94%, an Activity [17] of 88% and an Activity [18] of 100%. For the same compound, the Activity [19] was 93%, the Activity [20] was 78% and the Activity [21] was 100%. The Activity [22] was 92%, the Activity [23] was 85% and the Activity [24] was 100%.
